Here are results for 8 compounds from PubChem BioAssay (NCI).

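Grown in 96-well plates, cells were treated for 48 hours with each compound at five concentrations. Insufficient inhibition: endpoint recorded as highest concentration tested. GI50: concentration for 50% inhibition of growth. TGI denotes the concentration required for complete inhibition of growth.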

Test systems include HT29 colon; SK-MEL-5 melanoma; MALME-3M melanoma; NCI/ADR-RES ovarian; UACC-62 melanoma; OVCAR-4 ovarian; UACC-257 melanoma; TK-10 renal; UO-31 renal; 786-0 renal.
What all share (assay): inhibition of tumour cell growth, NCI panel, 48 h

In the case of `Nc1ccc(-c2ccc(N)cc2I)c(I)c1`, the GI50 with HT29 colon was 20 µM; in the assay on SK-MEL-5 melanoma, 13.9 µM; in the assay with MALME-3M melanoma, 11.9 µM; with NCI/ADR-RES ovarian, 19 µM; in the assay on UACC-62 melanoma, 12.1 µM; with OVCAR-4 ovarian, 17.5 µM. The GI50 was 21.5 µM in the assay on UACC-257 melanoma, 22.8 µM in the assay with TK-10 renal, 10.6 µM with UO-31 renal and 17.3 µM in the assay with 786-0 renal. For the same compound, the TGI is 42.8 µM in the assay on HT29 colon; 27.2 µM in the assay on SK-MEL-5 melanoma; 36.7 µM with MALME-3M melanoma; 70 µM in the assay on NCI/ADR-RES ovarian; 33.2 µM with UACC-62 melanoma; more than 100 µM in the assay with OVCAR-4 ovarian. In addition, the TGI in the assay on UACC-257 melanoma was determined as 53.8 µM; in the assay on TK-10 renal, 80.7 µM; with UO-31 renal it was 26 µM; with 786-0 renal it was 36.9 µM.
For `COC(=O)C(F)C(Br)C(=O)OC` (stereo not given), the TGI is 5.43 µM in the assay with HT29 colon; 34 µM in the assay with SK-MEL-5 melanoma; 16.5 µM with MALME-3M melanoma; 8.93 µM in the assay with NCI/ADR-RES ovarian; 30.4 µM in the assay with UACC-62 melanoma; 19.8 µM with OVCAR-4 ovarian. Also, the TGI in the assay on UACC-257 melanoma was 28.4 µM; with TK-10 renal, 5.37 µM; in the assay on UO-31 renal, 3.52 µM; in the assay on 786-0 renal it was 6.03 µM.
With `CS(=O)(=O)Nc1ccc(N=Cc2c(O)[nH]c3ccccc23)cc1`, the GI50 in the assay with HT29 colon, with SK-MEL-5 melanoma, with MALME-3M melanoma, in the assay with NCI/ADR-RES ovarian, with UACC-62 melanoma and in the assay with OVCAR-4 ovarian was more than 25 µM each time. Further, the GI50 in the assay with UACC-257 melanoma is more than 25 µM; in the assay with TK-10 renal, more than 25 µM; in the assay on UO-31 renal it was more than 8.56 µM; in the assay on 786-0 renal, more than 25 µM. Further, the TGI in the assay with HT29 colon, with SK-MEL-5 melanoma, in the assay on MALME-3M melanoma, in the assay on NCI/ADR-RES ovarian, in the assay on UACC-62 melanoma and with OVCAR-4 ovarian was more than 25 µM each time. Besides, the TGI in the assay on UACC-257 melanoma, with TK-10 renal, in the assay on UO-31 renal and with 786-0 renal was more than 25 µM in each case.
For `Cc1ccc2c(c1)C(=O)c1c-2n(CCCBr)c(=O)c2cc([N+](=O)[O-])ccc12`, the GI50 was 62.8 µM with HT29 colon; 33 µM with SK-MEL-5 melanoma; more than 100 µM in the assay on MALME-3M melanoma; 54.7 µM in the assay on NCI/ADR-RES ovarian; 26.1 µM in the assay with UACC-62 melanoma; more than 100 µM in the assay with OVCAR-4 ovarian. The GI50 is more than 100 µM in the assay with UACC-257 melanoma, more than 100 µM with TK-10 renal, 27.5 µM with UO-31 renal and 57.5 µM with 786-0 renal. For the same compound, the TGI in the assay with HT29 colon, in the assay on SK-MEL-5 melanoma, in the assay with MALME-3M melanoma, in the assay on NCI/ADR-RES ovarian, in the assay with UACC-62 melanoma and in the assay with OVCAR-4 ovarian was more than 100 µM throughout. The TGI with UACC-257 melanoma, with TK-10 renal, with UO-31 renal and in the assay with 786-0 renal was more than 100 µM in each case.
Turning to `CN(C)CC1CCCCCC(CN(C)C)C1=O` (stereo not given), the GI50 with HT29 colon was 1.35 µM; in the assay on SK-MEL-5 melanoma, 12.2 µM; in the assay on MALME-3M melanoma it was 2.19 µM; in the assay with NCI/ADR-RES ovarian, 3.39 µM; in the assay on UACC-62 melanoma it was 8.12 µM; with OVCAR-4 ovarian, 3.4 µM. For the same compound, the GI50 in the assay with UACC-257 melanoma is 1.77 µM; in the assay on TK-10 renal, 0.852 µM; in the assay with UO-31 renal it was 1.77 µM; in the assay on 786-0 renal it was 12.8 µM. The TGI in the assay on HT29 colon stood at 2.78 µM; in the assay with SK-MEL-5 melanoma, 25.1 µM; with MALME-3M melanoma, 5.01 µM; with NCI/ADR-RES ovarian, 14.3 µM; in the assay with UACC-62 melanoma, 22.9 µM; in the assay on OVCAR-4 ovarian, 21.7 µM. The TGI in the assay with UACC-257 melanoma came to 4.6 µM; in the assay with TK-10 renal, 2.13 µM; in the assay with UO-31 renal, 4.5 µM; in the assay with 786-0 renal it was 33.2 µM.
Regarding `COCCNc1cc(NC(=O)N2CCCc3cc(CN4CCN(C)CC4=O)c(C=O)nc32)ncc1C#N`, the GI50 with HT29 colon, with SK-MEL-5 melanoma, in the assay with MALME-3M melanoma, in the assay on NCI/ADR-RES ovarian, in the assay with UACC-62 melanoma and in the assay on OVCAR-4 ovarian was more than 50 µM each time. The GI50 is more than 50 µM in the assay on UACC-257 melanoma, more than 50 µM in the assay with TK-10 renal, more than 50 µM in the assay with UO-31 renal and 29.5 µM in the assay on 786-0 renal. Further, the TGI in the assay with HT29 colon, in the assay on SK-MEL-5 melanoma, with MALME-3M melanoma, in the assay with NCI/ADR-RES ovarian, with UACC-62 melanoma and in the assay on OVCAR-4 ovarian was more than 50 µM in each case. Also, the TGI in the assay on UACC-257 melanoma, in the assay with TK-10 renal, in the assay on UO-31 renal and in the assay on 786-0 renal was more than 50 µM throughout.
With `Nc1c(C(=O)Nc2ccccc2)sc2nc3c(cc12)CN(Cc1ccccc1)CC3`, the GI50 with HT29 colon is 24.7 µM; with SK-MEL-5 melanoma, 9.58 µM; in the assay on MALME-3M melanoma, 3.8 µM; with NCI/ADR-RES ovarian, 16.3 µM; in the assay with UACC-62 melanoma it was 13.9 µM; in the assay on OVCAR-4 ovarian, 1.97 µM. The GI50 in the assay with UACC-257 melanoma was 52.8 µM; in the assay on TK-10 renal, 4.09 µM; in the assay on UO-31 renal, 6.14 µM; in the assay on 786-0 renal, 13 µM. Also, the TGI is more than 100 µM in the assay with HT29 colon; more than 100 µM in the assay with SK-MEL-5 melanoma; more than 100 µM with MALME-3M melanoma; more than 100 µM in the assay on NCI/ADR-RES ovarian; more than 100 µM in the assay with UACC-62 melanoma; 23.1 µM in the assay on OVCAR-4 ovarian. Also, the TGI with UACC-257 melanoma was more than 100 µM; in the assay with TK-10 renal it was 54.7 µM; with UO-31 renal, more than 100 µM; in the assay on 786-0 renal, more than 100 µM.
`CN(C(=O)c1ccncc1)c1ccccc1`: the TGI in the assay on HT29 colon, in the assay on SK-MEL-5 melanoma, with MALME-3M melanoma, in the assay on NCI/ADR-RES ovarian, with UACC-62 melanoma and in the assay on OVCAR-4 ovarian was more than 100 µM throughout. Besides, the TGI in the assay with UACC-257 melanoma, with TK-10 renal, in the assay with UO-31 renal and in the assay on 786-0 renal was more than 100 µM each time.
